US10266537B2, “3-acetylenyl-pyrazole-pyrimidine derivative, and preparation method therefor and uses thereof” (Si Chuan University, priority 2015, dated 2019)

Key:
[1] = tested on: SKBR-3; experiment: Cell proliferation inhibition assay (MTT); format: cell-based; settings: Homo sapiens, SK-BR-3, 72 hours, read-out: Proliferation inhibitory activity IC50
Protocol: The cells were seeded in 96-well plates with 200 μL of cell suspension per well and incubated overnight in a cell culture medium with a cell concentration of 1 2×10^4 cells/mL. The next day, the supernatant was discarded (the suspension cell was centrifuged before it) and the cells were treated with gradient concentrations of the test compound, respectively. […] After 72 hours, add 20 μL of MTT reagent at a concentration of 5 mg/mL per well. After incubation for 2-4 h, the supernatant was discarded and 150 μL of DMSO was added to each well. […] Relative cell proliferation inhibition rate=([MUT]-[MUT])×100%/[MUT]. The experiment was repeated at least 3 times. Experimental data were expressed as mean, data statistics using t test, P<0.05 for the difference was statistically significant.

[2] = target: TLK2(h) (Homo sapiens (Human), UniProt Q86UE8); experiment: Kinase inhibition assay (KinaseProfiler, 33P-ATP); format: biochemical; settings: read-out: The percentage of the remaining active protein
[3] = target: Fes(h) (Homo sapiens (Human), UniProt P07332); experiment: Kinase inhibition assay (KinaseProfiler, 33P-ATP); format: biochemical; settings: read-out: The percentage of the remaining active protein
[4] = target: MINK(h) (Homo sapiens (Human), UniProt Q8N4C8); experiment: Kinase inhibition assay (KinaseProfiler, 33P-ATP); format: biochemical; settings: read-out: The percentage of the remaining active protein
[5] = target: CaMKIδ(h) (Homo sapiens (Human), UniProt Q8IU85); experiment: Kinase inhibition assay (KinaseProfiler, 33P-ATP); format: biochemical; settings: read-out: The percentage of the remaining active protein
[6] = target: MuSK(h) (Homo sapiens (Human), UniProt O15146); experiment: Kinase inhibition assay (KinaseProfiler, 33P-ATP); format: biochemical; settings: read-out: The percentage of the remaining active protein
[7] = target: Wee1(h) (Homo sapiens (Human), UniProt P30291); experiment: Kinase inhibition assay (KinaseProfiler, 33P-ATP); format: biochemical; settings: read-out: The percentage of the remaining active protein
[8] = target: CDK9/cyclin T1(h) (Homo sapiens (Human), UniProt P50750); experiment: Kinase inhibition assay (KinaseProfiler, 33P-ATP); format: biochemical; settings: read-out: The percentage of the remaining active protein
[9] = target: MSK2(h) (Homo sapiens (Human), UniProt O75676); experiment: Kinase inhibition assay (KinaseProfiler, 33P-ATP); format: biochemical; settings: read-out: The percentage of the remaining active protein
[10] = target: CDK5/p25(h) (Homo sapiens (Human), UniProt Q00535); experiment: Kinase inhibition assay (KinaseProfiler, 33P-ATP); format: biochemical; settings: read-out: The percentage of the remaining active protein
[11] = target: PKR(h) (Homo sapiens (Human), UniProt P19525); experiment: Kinase inhibition assay (KinaseProfiler, 33P-ATP); format: biochemical; settings: read-out: The percentage of the remaining active protein
[12] = target: cKit(h) (Homo sapiens (Human), UniProt P10721); experiment: Kinase inhibition assay (KinaseProfiler, 33P-ATP); format: biochemical; settings: 10 μM, read-out: The percentage of the remaining active protein
[13] = target: SAPK2b (Homo sapiens (Human), UniProt Q15759); experiment: Kinase inhibition assay (KinaseProfiler, 33P-ATP); format: biochemical
[14] = target: NEK7(h) (Homo sapiens (Human), UniProt Q8TDX7); experiment: Kinase inhibition assay (KinaseProfiler, 33P-ATP); format: biochemical; settings: read-out: The percentage of the remaining active protein
[15] = target: Haspin(h) (Homo sapiens (Human), UniProt Q8TF76); experiment: Kinase inhibition assay (KinaseProfiler, 33P-ATP); format: biochemical; settings: read-out: The percentage of the remaining active protein
[16] = target: Met(Y1248C)(h) (Homo sapiens (Human), UniProt P08581, Y1248C); experiment: Kinase inhibition assay (KinaseProfiler, 33P-ATP); format: biochemical; settings: read-out: The percentage of the remaining active protein
[17] = target: PDGFRα (V561D) (Homo sapiens (Human), UniProt P16234, V561D); experiment: Kinase inhibition assay (KinaseProfiler, 33P-ATP); format: biochemical; settings: PDGFRα(V561D)(h), read-out: The percentage of the remaining active protein
[18] = target: CDK6/cyclinD3(h) (Homo sapiens (Human), UniProt Q00534); experiment: Kinase inhibition assay (KinaseProfiler, 33P-ATP); format: biochemical; settings: read-out: The percentage of the remaining active protein
[19] = target: FGFR2(N549H)(h) (Homo sapiens (Human), UniProt P21802, N549H); experiment: Kinase inhibition assay (KinaseProfiler, 33P-ATP); format: biochemical; settings: read-out: The percentage of the remaining active protein
[20] = target: DRAK1(h) (Homo sapiens (Human), UniProt Q9UEE5); experiment: Kinase inhibition assay (KinaseProfiler, 33P-ATP); format: biochemical; settings: read-out: The percentage of the remaining active protein
[21] = target: BRK (Homo sapiens (Human), UniProt Q13882); experiment: Kinase inhibition assay (KinaseProfiler, 33P-ATP); format: biochemical; settings: BRK(h), read-out: The percentage of the remaining active protein
[22] = target: cSRC(h) (Homo sapiens (Human), UniProt P12931); experiment: Kinase inhibition assay (KinaseProfiler, 33P-ATP); format: biochemical; settings: 10 μM, read-out: The percentage of the remaining active protein
[23] = target: TSSK2(h) (Homo sapiens (Human), UniProt Q96PF2); experiment: Kinase inhibition assay (KinaseProfiler, 33P-ATP); format: biochemical; settings: read-out: The percentage of the remaining active protein
[24] = target: GCK(h) (Homo sapiens (Human), UniProt Q12851); experiment: Kinase inhibition assay (KinaseProfiler, 33P-ATP); format: biochemical; settings: read-out: The percentage of the remaining active protein
[25] = target: PI3 Kinase (p110a(E542K)/p85a)(h) (Homo sapiens (Human), UniProt P42336, E542K); experiment: Kinase inhibition assay (KinaseProfiler, 33P-ATP); format: biochemical; settings: read-out: The percentage of the remaining active protein
[26] = target: PKCβII(h) (Homo sapiens (Human), UniProt P05771); experiment: Kinase inhibition assay (KinaseProfiler, 33P-ATP); format: biochemical; settings: read-out: The percentage of the remaining active protein
[27] = target: ROCK-II(h) (Homo sapiens (Human), UniProt O75116); experiment: Kinase inhibition assay (KinaseProfiler, 33P-ATP); format: biochemical; settings: read-out: The percentage of the remaining active protein
[28] = target: CDK2/cyclinE(h) (Homo sapiens (Human), UniProt P24941); experiment: Kinase inhibition assay (KinaseProfiler, 33P-ATP); format: biochemical; settings: read-out: The percentage of the remaining active protein
[29] = target: Met(D1246H)(h) (Homo sapiens (Human), UniProt P08581, D1246H); experiment: Kinase inhibition assay (KinaseProfiler, 33P-ATP); format: biochemical; settings: read-out: The percentage of the remaining active protein
[30] = target: GSK3α(h) (Homo sapiens (Human), UniProt P49840); experiment: Kinase inhibition assay (KinaseProfiler, 33P-ATP); format: biochemical; settings: read-out: The percentage of the remaining active protein
[31] = target: PKCε(h) (Homo sapiens (Human), UniProt Q02156); experiment: Kinase inhibition assay (KinaseProfiler, 33P-ATP); format: biochemical; settings: read-out: The percentage of the remaining active protein
[32] = target: Tie2(R849W)(h) (Homo sapiens (Human), UniProt Q02763, R849W); experiment: Kinase inhibition assay (KinaseProfiler, 33P-ATP); format: biochemical; settings: read-out: The percentage of the remaining active protein
[33] = target: PIP4K2a(h) (Homo sapiens (Human), UniProt P48426); experiment: Kinase inhibition assay (KinaseProfiler, 33P-ATP); format: biochemical; settings: read-out: The percentage of the remaining active protein
[34] = target: Pyk2 (Homo sapiens (Human), UniProt Q14289); experiment: Kinase inhibition assay (KinaseProfiler, 33P-ATP); format: biochemical; settings: Pyk2(h), read-out: The percentage of the remaining active protein
[35] = target: Aurora-B(h) (Homo sapiens (Human), UniProt Q96GD4); experiment: Kinase inhibition assay (KinaseProfiler, 33P-ATP); format: biochemical; settings: read-out: The percentage of the remaining active protein
Chain of Aurora-B(h) (Q96GD4 whole entry): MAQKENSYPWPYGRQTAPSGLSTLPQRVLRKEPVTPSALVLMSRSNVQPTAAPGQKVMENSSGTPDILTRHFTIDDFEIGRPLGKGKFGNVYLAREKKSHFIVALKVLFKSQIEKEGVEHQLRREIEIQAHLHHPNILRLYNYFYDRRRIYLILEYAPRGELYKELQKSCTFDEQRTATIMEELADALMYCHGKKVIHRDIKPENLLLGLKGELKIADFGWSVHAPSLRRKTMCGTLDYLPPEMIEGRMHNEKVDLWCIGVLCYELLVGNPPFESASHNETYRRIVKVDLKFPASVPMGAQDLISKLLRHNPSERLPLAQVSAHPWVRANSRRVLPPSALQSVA

Chain of SAPK2b (Q15759 whole entry): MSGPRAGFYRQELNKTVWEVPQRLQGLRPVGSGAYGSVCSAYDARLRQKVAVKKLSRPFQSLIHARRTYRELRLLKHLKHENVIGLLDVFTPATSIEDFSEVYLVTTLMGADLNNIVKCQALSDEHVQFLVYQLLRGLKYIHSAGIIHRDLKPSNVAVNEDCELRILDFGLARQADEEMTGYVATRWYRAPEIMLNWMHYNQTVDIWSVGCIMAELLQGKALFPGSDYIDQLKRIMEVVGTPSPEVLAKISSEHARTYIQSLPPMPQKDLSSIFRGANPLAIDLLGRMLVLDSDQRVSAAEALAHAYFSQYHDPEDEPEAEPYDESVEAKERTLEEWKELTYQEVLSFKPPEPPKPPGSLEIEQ
Chain of TLK2(h) (Q86UE8 whole entry): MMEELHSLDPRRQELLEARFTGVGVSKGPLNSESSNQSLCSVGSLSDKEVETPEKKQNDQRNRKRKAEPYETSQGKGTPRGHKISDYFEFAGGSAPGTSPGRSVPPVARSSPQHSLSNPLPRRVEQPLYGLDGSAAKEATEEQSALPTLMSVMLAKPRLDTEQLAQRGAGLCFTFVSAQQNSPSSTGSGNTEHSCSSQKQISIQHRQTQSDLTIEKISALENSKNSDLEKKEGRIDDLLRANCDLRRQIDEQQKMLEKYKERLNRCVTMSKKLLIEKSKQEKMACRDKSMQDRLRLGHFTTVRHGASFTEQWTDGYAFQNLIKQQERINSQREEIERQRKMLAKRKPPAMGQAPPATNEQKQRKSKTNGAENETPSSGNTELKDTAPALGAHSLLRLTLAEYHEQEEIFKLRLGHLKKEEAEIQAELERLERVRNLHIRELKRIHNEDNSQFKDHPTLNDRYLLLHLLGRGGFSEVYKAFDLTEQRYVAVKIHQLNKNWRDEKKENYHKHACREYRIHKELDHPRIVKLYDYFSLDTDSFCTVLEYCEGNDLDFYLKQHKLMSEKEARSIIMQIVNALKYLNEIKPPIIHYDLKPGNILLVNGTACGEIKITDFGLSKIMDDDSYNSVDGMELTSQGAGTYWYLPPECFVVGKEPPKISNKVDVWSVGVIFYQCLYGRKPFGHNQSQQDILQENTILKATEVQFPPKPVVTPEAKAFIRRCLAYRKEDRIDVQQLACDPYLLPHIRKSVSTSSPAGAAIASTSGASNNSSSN
Chain of GSK3α(h) (P49840 whole entry): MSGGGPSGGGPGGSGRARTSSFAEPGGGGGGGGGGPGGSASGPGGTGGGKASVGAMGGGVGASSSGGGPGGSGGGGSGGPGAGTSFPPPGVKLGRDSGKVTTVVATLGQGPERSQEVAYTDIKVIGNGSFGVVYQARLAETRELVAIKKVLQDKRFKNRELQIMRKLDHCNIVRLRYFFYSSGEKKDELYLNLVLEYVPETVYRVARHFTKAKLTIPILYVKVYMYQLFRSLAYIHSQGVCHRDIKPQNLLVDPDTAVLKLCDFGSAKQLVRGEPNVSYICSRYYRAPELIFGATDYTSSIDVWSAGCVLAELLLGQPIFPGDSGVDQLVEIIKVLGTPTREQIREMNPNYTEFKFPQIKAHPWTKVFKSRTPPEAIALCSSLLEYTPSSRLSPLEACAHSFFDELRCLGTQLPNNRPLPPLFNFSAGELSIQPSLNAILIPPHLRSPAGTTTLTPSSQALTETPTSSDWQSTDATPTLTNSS
Chain of CDK5/p25(h) (Q00535 whole entry): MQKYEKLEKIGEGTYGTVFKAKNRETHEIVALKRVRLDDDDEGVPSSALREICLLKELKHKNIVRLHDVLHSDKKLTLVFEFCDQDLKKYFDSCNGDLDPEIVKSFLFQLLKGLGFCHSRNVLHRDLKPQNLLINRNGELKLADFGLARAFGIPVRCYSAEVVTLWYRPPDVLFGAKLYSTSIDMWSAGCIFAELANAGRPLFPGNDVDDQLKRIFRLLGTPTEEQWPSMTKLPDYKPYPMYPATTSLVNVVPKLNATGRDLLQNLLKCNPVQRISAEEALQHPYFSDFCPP
Chain of CDK5/p25(h) (Q15078 99-307 partner): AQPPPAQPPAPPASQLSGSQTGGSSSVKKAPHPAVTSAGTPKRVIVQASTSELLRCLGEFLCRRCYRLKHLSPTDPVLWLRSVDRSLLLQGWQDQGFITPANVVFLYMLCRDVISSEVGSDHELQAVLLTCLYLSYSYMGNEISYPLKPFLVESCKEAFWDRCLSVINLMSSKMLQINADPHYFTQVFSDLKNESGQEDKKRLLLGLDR
Chain of MuSK(h) (O15146 24-869): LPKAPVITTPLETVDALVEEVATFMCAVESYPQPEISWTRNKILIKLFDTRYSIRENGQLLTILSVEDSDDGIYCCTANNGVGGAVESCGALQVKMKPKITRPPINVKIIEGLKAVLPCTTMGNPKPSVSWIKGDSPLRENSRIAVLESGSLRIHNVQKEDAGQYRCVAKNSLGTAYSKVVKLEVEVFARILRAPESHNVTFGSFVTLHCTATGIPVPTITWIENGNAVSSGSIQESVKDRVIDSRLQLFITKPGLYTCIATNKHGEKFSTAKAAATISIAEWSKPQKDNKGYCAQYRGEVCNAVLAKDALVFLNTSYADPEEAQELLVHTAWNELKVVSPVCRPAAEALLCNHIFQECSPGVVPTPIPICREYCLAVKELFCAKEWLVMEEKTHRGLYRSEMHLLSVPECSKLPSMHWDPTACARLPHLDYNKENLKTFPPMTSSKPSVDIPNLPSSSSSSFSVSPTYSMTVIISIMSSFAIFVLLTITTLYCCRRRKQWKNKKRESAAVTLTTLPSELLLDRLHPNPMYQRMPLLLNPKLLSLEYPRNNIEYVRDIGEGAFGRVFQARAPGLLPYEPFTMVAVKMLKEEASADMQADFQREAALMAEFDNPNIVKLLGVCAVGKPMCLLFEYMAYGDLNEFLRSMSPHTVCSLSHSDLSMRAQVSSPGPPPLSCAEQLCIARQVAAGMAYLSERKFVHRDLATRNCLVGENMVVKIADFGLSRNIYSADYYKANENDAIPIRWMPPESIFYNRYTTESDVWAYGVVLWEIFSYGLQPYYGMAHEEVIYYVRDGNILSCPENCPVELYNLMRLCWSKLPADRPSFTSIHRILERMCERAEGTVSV
Chain of Tie2(R849W)(h) (Q02763 23-1124 R849W): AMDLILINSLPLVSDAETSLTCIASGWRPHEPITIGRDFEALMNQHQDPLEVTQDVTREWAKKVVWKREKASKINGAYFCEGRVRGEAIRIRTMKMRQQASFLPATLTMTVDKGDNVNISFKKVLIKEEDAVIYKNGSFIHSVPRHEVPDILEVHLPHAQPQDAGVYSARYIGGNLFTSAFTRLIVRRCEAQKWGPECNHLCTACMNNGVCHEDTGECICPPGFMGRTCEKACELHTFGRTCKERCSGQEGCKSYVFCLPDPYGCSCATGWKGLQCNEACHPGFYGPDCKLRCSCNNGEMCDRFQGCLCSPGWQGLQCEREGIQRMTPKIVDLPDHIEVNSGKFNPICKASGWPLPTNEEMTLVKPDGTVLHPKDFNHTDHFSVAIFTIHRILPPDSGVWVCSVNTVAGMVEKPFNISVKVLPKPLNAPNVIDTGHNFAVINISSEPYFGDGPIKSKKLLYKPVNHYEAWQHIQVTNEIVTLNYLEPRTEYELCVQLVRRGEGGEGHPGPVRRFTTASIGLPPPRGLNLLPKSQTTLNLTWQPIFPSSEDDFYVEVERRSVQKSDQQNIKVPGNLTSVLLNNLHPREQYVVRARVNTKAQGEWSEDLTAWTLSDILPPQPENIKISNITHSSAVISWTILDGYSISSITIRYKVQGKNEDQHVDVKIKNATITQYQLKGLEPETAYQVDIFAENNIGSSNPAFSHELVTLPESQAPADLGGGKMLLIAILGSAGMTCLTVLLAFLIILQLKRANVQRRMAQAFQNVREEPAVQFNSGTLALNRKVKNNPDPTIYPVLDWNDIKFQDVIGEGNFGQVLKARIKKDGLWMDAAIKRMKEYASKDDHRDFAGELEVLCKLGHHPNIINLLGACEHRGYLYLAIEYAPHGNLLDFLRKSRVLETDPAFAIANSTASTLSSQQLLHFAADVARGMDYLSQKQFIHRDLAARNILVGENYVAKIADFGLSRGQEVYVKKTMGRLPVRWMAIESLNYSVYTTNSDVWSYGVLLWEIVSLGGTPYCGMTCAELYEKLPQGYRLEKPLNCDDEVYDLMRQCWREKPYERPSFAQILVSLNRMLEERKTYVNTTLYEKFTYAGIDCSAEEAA
Chain of DRAK1(h) (Q9UEE5 whole entry): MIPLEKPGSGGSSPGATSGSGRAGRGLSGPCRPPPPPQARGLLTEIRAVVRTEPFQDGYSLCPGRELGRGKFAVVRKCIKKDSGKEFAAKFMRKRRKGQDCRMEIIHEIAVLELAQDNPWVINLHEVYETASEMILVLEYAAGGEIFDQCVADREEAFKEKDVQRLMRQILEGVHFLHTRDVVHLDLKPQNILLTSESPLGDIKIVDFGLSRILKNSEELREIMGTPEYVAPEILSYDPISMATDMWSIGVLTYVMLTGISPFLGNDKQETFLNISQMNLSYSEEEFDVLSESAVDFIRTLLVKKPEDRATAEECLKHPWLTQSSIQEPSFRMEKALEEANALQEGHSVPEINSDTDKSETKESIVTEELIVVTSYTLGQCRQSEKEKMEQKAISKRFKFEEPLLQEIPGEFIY

With `Cc1ccc(NC(=O)c2cccc(C(F)(F)F)c2)cc1C#Cc1nn(C2CCN(C)CC2)c2ncnc(N)c12` [Compound 31] as the molecule, how does the IC50 [1] read?
Its IC50 is 1260 nM.

Which results are given for `Cc1ccc(NC(=O)c2ccc(C)c(C(F)(F)F)c2)cc1C#Cc1nn([C@H]2CC[C@H](O)CC2)c2ncnc(N)c12` [Compound 93]?
remaining activity at 10 µM [2]: 93%; remaining activity at 10 µM [3]: 34%; remaining activity at 10 µM [4]: 25%; remaining activity at 10 µM [5]: 92%; remaining activity at 10 µM [6]: 70%; remaining activity at 10 µM [7]: 95%; remaining activity at 10 µM [8]: 113%; remaining activity at 10 µM [9]: 70%; remaining activity at 10 µM [10]: 87%; remaining activity at 10 µM [11]: 75%; remaining activity at 10 µM [12]: 89%; remaining activity at 10 µM ([13]; SAPK2b(h), 10 μM, read-out: The percentage of the remaining active protein): -2%; IC50 ([13]; SAPK2b, ATP at Km): 84 nM; remaining activity at 10 µM [14]: 98%; remaining activity at 10 µM [15]: 93%; remaining activity at 10 µM [16]: 139%; remaining activity at 10 µM [17]: 0%; remaining activity at 10 µM [18]: 120%; remaining activity at 10 µM [19]: -1%; remaining activity at 10 µM [20]: 140%; remaining activity at 10 µM [21]: -1%; remaining activity at 10 µM [22]: 0%; remaining activity at 10 µM [23]: 96%; remaining activity at 10 µM [24]: 49%; remaining activity at 10 µM [25]: 85%; remaining activity at 10 µM [26]: 99%; remaining activity at 10 µM [27]: 56%; remaining activity at 10 µM [28]: 102%; remaining activity at 10 µM [29]: 124%; remaining activity at 10 µM [30]: 79%; remaining activity at 10 µM [31]: 117%; remaining activity at 10 µM [32]: 0%; remaining activity at 10 µM [33]: 100%; remaining activity at 10 µM [34]: 5%; remaining activity at 10 µM [35]: 475%
